Data from US8017611B2, “Pyridine and pyrazine derivatives -083” (AstraZeneca AB, priority 2007, dated 2011).
Marks after values point to notes of the source that are not given here.

Biological target: T1, recombinant Axl tyrosine kinase (Homo sapiens, UniProt P30530)
T1 construct: encompassing amino acids 473 to 894 of Axl; GST (N); made in house; host or cells: SF126 insect cells
T1 sequence (P30530 473-894): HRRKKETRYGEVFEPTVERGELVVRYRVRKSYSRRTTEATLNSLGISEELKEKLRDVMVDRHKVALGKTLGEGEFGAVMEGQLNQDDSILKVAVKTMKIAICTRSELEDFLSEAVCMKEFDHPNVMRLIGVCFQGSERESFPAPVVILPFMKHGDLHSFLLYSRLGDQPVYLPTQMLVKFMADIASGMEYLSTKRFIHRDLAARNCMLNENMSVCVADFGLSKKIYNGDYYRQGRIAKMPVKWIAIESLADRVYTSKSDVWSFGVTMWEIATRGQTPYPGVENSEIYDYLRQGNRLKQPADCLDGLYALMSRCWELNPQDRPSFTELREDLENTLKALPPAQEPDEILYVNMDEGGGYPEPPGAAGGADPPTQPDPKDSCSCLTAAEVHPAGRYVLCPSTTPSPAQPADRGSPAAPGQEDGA
Experiment: In vitro Axl kinase assay (AlphaScreen), Test (a)
Assay type: biochemical
Details: 1 μM; mean calculated from a larger number of replicates than the first value; read-out: % Axl tyrosine kinase inhibition at 1 μM concentration (second value, †)
Protocol: Test compounds were prepared as 10 mM stock solutions in dimethylsulphoxide (DMSO) and diluted in DMSO as required. Aliquots (120 nl) of compound dilutions were filled into the wells of a Greiner 384-well low volume (LV) white polystyrene plate (Greiner Bio-one) using acoustic dispensing (Labcyte Echo 550). A 10 μl mixture of recombinant purified Axl enzyme, biotinylated peptide substrate (Biotin poly-GAT; CisBio, Catalogue No. 61GATBLB), 0.2 μM adenosine triphosphate (ATP) and a buffer solution [comprising 20 mM Tris-HCl pH 7.5 buffer, 0.01% v/v Tween, 5 mM dithiothreitol (DTT) and 10 mM manganese chloride] was incubated with the compounds at room temperature for 20 minutes.
Control wells that produced a minimum signal corresponding to 100% inhibited enzyme were created by adding 10 μM of Staurosporine.
The percentage kinase inhibition value is the percentage of Axl tyrosine kinase activity inhibited by the test compound at a concentration of 1 μM.

| inhibition at 1 µM [%] | Structure (SMILES) |
| --- | --- |
| 99 | CC(C)(C)OC(=O)N1CCC(n2cc(-c3cnc(N)c(-c4nc5ccccc5s4)c3)cn2)CC1 [Example 13, tert-butyl 4-[4-[6-Amino-5-(1,3-benzothiazol-2-yl)-3-pyridyl]pyrazol-1-yl]piperidine-1-carboxylate] |

Same assay, conditions: Test (a); read-out: IC50 versus Axl tyrosine kinase

| IC50 [nM] | Structure (SMILES) |
| --- | --- |
| ~0.6 | COCc1nn(C2CCN(C(=O)CO)CC2)cc1-c1cnc(N)c(-c2nc3ccccc3o2)c1 [Example 66, 1-[4-[4-[6-amino-5-(1,3-benzoxazol-2-yl)-3-pyridyl]-3-(methoxymethyl)pyrazol-1-yl]-1-piperidyl]-2-hydroxy-ethanone] |

Same assay, conditions: test compound at 1 μM; first value quoted

| % Axl tyrosine kinase inhibition at 1 μM concentration | Structure (SMILES) |
| --- | --- |
| 100.0% | Nc1ncc(-c2cnn(CCCN3CCC(O)C3)c2)cc1-c1nc2ccccc2o1 (centres unmarked) [Example 31.1] |
| 92.1% | COc1cccc2oc(-c3cc(-c4cnn(C5CCN(C)CC5)c4)cnc3N)nc12 [Example 41.24] |
| 98.2% | Nc1ncc(-c2ccc(OC3CCNC3)cc2)cc1-c1nc2ncccc2o1 (centres unmarked) [Example 43B.27] |
| 98.9% | COc1cc(-c2cnc(N)c(-c3nc4ncccc4o3)c2)ccc1OC1CCN(C)CC1 [Example 43C.11] |
| 73.2% | Nc1ncc(-c2cccc(C(=O)NC3CC3)c2)cc1-c1nc2cccnc2o1 [Example 9A.17] |
| 100.0% | COc1cccc2nc(-c3cc(-c4cnn(C5CCNCC5)c4)cnc3N)oc12 [Example 38.5] |
| 96.0% | CN1CCN(CCNC(=O)c2ccc(-c3cnc(N)c(-c4nc5cccnc5o4)c3)cc2)CC1 [Example 45A.73] |
| 97.7% | Nc1ncc(-c2ccc(OCCOCCN3CCOCC3)cc2)cc1-c1nc2ncccc2o1 [Example 43B.22] |
| 57.4% | CN1CCN(C(=O)c2cccc(-c3cnc(N)c(-c4nc5ncccc5o4)c3)c2)CC1 [Example 10A.8] |
| 98.3% | Nc1ncc(-c2ccc(OCC3CCNCC3)cc2)cc1-c1nc2ncccc2o1 [Example 43B.36] |
| 99.7% | CC1CCCCN1CC1CCCN1C(=O)c1ccc(-c2cnc(N)c(-c3nc4cccnc4o3)c2)cc1 (centres unmarked) [Example 45A.18] |
| 95.8% | CN(C)C1CCC(NC(=O)c2ccc(-c3cnc(N)c(-c4nc5cccnc5o4)c3)cc2)CC1 (centres unmarked) [Example 45A.24] |
| 97.6% | Nc1ncc(-c2ccc(C(=O)N3CCC(CN4CCNCC4)CC3)cc2)cc1-c1nc2cccnc2o1 [Example 45A.98] |
| 99.8% | COc1cc(-c2cnc(N)c(-c3nc4ncccc4o3)c2)ccc1OCC1CCCNC1 (centres unmarked) [Example 43C.33] |
| 99.9% | Nc1ncc(-c2ccc(OCCCN3CCCC3)cc2)cc1-c1nc2ncccc2o1 [Example 43B.18] |
| 100.0% | COc1cccc2nc(-c3cc(-c4cnn(C5CCN(C)CC5)c4)cnc3N)oc12 [Example 41.27] |
| 40.7% | N#Cc1cccc(-c2cnc(N)c(-c3nc4ccccc4o3)c2)c1 [Example 2.40] |
| 96.7% | CN(C)[C@@H]1CCN(C(=O)c2ccc(-c3cnc(N)c(-c4nc5cccnc5o4)c3)cc2)C1 [Example 45A.76] |
| 99.9% | Cc1nn(C2CCNCC2)cc1-c1cnc(N)c(-c2nc3ncccc3o2)c1 [Example 25.16] |
| 99.4% | N#CCc1ccc(-c2cnc(N)c(-c3nc4cnccc4o3)c2)cc1 [Example 8A.16] |
| 91.7% | Nc1ncc(-c2ccc(C(=O)N3CCC4(CCNC4)CC3)cc2)cc1-c1nc2cccnc2o1 [Example 45A.89] |

| % Axl tyrosine kinase inhibition at 1 μM concentration | Structure (SMILES) |
| --- | --- |
| 98.7% | C[C@H](O)C(=O)N1CCC(n2cc(-c3cnc(N)c(-c4nc5ncccc5o4)c3)cn2)CC1 [Example 57.3] |
| 99.6% | Nc1ncc(-c2ccc(C(=O)N3CCN(Cc4ccccn4)CC3)cc2)cc1-c1nc2ncccc2o1 [Example 45B.4] |
| 87.8% | Nc1ncc(-c2cccc(C(=O)NC3CC3)c2)cc1-c1nc2cnccc2o1 [Example 8A.7] |
| 98.1% | CN(C)CCN(C)C(=O)c1ccc(-c2cnc(N)c(-c3nc4ncccc4o3)c2)cc1 [Example 45B.1] |
| 99.7% | Nc1ncc(-c2cnn(CCCN3CCC3)c2)cc1-c1nc2ccccc2o1 [Example 31.6] |
| 97.8% | COc1cccc2oc(-c3cc(-c4cnn(C5CCNCC5)c4)cnc3N)nc12 [Example 38A.1] |
| 99.4% | CN[C@H]1COCC[C@H]1Oc1ccc(-c2cnc(N)c(-c3nc4ncccc4o3)c2)cc1OC [Example 43C.37] |
| 97.1% | Nc1ncc(-c2ccc(C(=O)N3CC[C@H](N4CCCC4)C3)cc2)cc1-c1nc2cccnc2o1 [Example 45A.22] |
| 74.7% | CN1CC(Cn2cc(-c3cnc(N)c(-c4nc5ccccc5o4)c3)cn2)C1 [Example 41.11] |
| 99.2% | COc1cc(-c2cnc(N)c(-c3nc4ncccc4o3)c2)ccc1OCCOCCN1CCNCC1 [Example 43C.35] |
| 98.3% | N#CCc1ccc(-c2cnc(N)c(-c3nc4ccccc4o3)n2)cc1 [Example 20.19] |
| 99.1% | NCc1ccc(-c2cnc(N)c(-c3nc4cnccc4o3)c2)cc1 [Example 8A.23] |
| 4.2**** % | CN1CCN(c2cccc(-c3cnc(N)c(-c4nc5ccccc5o4)c3)c2)CC1 [Example 2.53] |
| 99.8% | CNC(=O)c1nn(C2CCNCC2)cc1-c1cnc(N)c(-c2nc3ccccc3o2)c1 [Example 62.4] |
| 98.1% | COc1cc(-c2cnc(N)c(-c3nc4ncccc4o3)c2)ccc1OCC#CCN1CCS(=O)(=O)CC1 [Example 43C.20] |
| 98.8% | CN1CCCC1CCNC(=O)c1ccc(-c2cnc(N)c(-c3nc4cccnc4o3)c2)cc1 (centres unmarked) [Example 45A.5] |
| 99.4% | Nc1ncc(-c2cnn(C3CCN(C(=O)CO)CC3)c2)cc1-c1nc2ncccc2o1 [Example 57.2] |
| 98.7% | Nc1ncc(-c2ccc(C(=O)NCCO)cc2)cc1-c1nc2cnccc2o1 [Example 8A.25] |
| 99.9% | Nc1ncc(-c2ccc(C(=O)N3CCC(N4CCCC4)CC3)cc2)cc1-c1nc2ncccc2o1 [Example 45B.5] |
| 96.8% | CN(C)C(=O)CN1CCN(C(=O)c2ccc(-c3cnc(N)c(-c4nc5cccnc5o4)c3)cc2)CC1 [Example 45A.67] |

| Structure (SMILES) | % Axl tyrosine kinase inhibition at 1 μM concentration |
| --- | --- |
| Nc1ncc(-c2ccc(C(=O)N[C@H]3CN4CCC3CC4)cc2)cc1-c1nc2cccnc2o1 [Example 45A.35] | 98.4% |

Same assay, conditions: test compound at 1 μM; first value quoted; read-out: % Axl tyrosine kinase inhibition at 1 μM concentration

| inhibition at 1 µM [%] | Structure (SMILES) |
| --- | --- |
| 100 | COCc1nn(C2CCN(C(=O)CO)CC2)cc1-c1cnc(N)c(-c2nc3ccccc3o2)c1 [Example 66, 1-[4-[4-[6-amino-5-(1,3-benzoxazol-2-yl)-3-pyridyl]-3-(methoxymethyl)pyrazol-1-yl]-1-piperidyl]-2-hydroxy-ethanone] |
| 95.4 | CC(C)(C)OC(=O)N1CCC(n2cc(-c3cnc(N)c(-c4nc5ccccc5s4)c3)cn2)CC1 [Example 13, tert-butyl 4-[4-[6-Amino-5-(1,3-benzothiazol-2-yl)-3-pyridyl]pyrazol-1-yl]piperidine-1-carboxylate] |
| 99.8 | Nc1ncc(-c2ccc(N3CCNCC3)nc2)cc1-c1nc2ccccc2o1 [Example 2.19, 3-(1,3-Benzoxazol-2-yl)-5-[6-(piperazin-1-yl)-3-pyridyl]pyridin-2-amine] |
| 95.9 | Nc1ncc(-c2cccc(S(=O)(=O)CCC3CCNCC3)c2)cc1-c1nc2ccccc2o1 [Example 46, 3-(1,3-Benzoxazol-2-yl)-5-[3-[2-(4-piperidyl)ethylsulphonyl]phenyl]pyridin-2-amine] |
| 99.4 | COc1cc(-c2cnc(N)c(-c3nc4cccnc4o3)c2)ccc1OCCN1CCCC1 [Example 43C.1, 5-[3-methoxy-4-(2-pyrrolidin-1-ylethoxy)phenyl]-3-oxazolo[5,4-b]pyridin-2-yl-pyridin-2-amine] |
| 98.8 | Nc1ncc(-c2cnn(C3CCNCC3)c2)cc1-c1nc2ncccc2o1 [Example 10, 3-Oxazolo[4,5-b]pyridin-2-yl-5-[1-(4-piperidyl)pyrazol-4-yl]pyridin-2-amine] |
| 100 | COCc1nn(C2CCNCC2)cc1-c1cnc(N)c(-c2nc3ccccc3o2)c1 [Example 25.14, 3-(1,3-benzoxazol-2-yl)-5-[3-(methoxymethyl)-1-(4-piperidyl)pyrazol-4-yl]pyridin-2-amine] |

Same assay, conditions: test compound at 30 μM

| Structure (SMILES) | % of Axl tyrosine kinase activity inhibited at a concentration of 30 μM |
| --- | --- |
| CN1CCN(c2cccc(-c3cnc(N)c(-c4nc5ccccc5o4)c3)c2)CC1 [Example 2.53] | ****the compound disclosed in Example 2.53 inhibited 82% of Axl tyrosine kinase activity at a concentration of 30 μM. |
| CS(=O)(=O)c1cccc(-c2cnc(N)c(-c3nc4cnccc4o3)c2)c1 [Example 8A.3] | ^###the compound disclosed in Example 8A.3 inhibited 100% of Axl tyrosine kinase activity at a concentration of 30 μM. |
